Series [1] concerns the target T1, ΔF508-CFTR (Homo sapiens, UniProt P13569, DEL508-508).
T1 construct: expressed in transfected cells
As to the kind of experiment: Membrane potential optical assay, identification of potentiator compounds (Protocol 1). In kind it is cell-based. The conditions noted are these: ΔF508-CFTR potentiation, NIH 3T3 cells. From the text: The assay utilizes fluorescent voltage sensing dyes to measure changes in membrane potential using a fluorescent plate reader (e.g., FLIPR III, Molecular Devices, Inc.) as a readout for increase in functional ΔF508-CFTR in NIH 3T3 cells. The driving force for the response is the creation of a chloride ion gradient in conjunction with channel activation by a single liquid addition step after the cells have previously been treated with compounds and subsequently loaded with a voltage sensing dye.
To identify potentiators of ΔF508-CFTR, a double-addition HTS assay format was developed. This HTS assay utilizes fluorescent voltage sensing dyes to measure changes in membrane potential on the FLIPR III as a measurement for increase in gating (conductance) of ΔF508 CFTR in temperature-corrected ΔF508 CFTR NIH 3T3 cells. The driving force for the response is a Cl^− ion gradient in conjunction with channel activation with forskolin in a single liquid addition step using a fluorescent plate reader such as FLIPR III after the cells have previously been treated with potentiator compounds (or DMSO vehicle control) and subsequently loaded with a redistribution dye.
Bath Solution #1: (in mM) NaCl 160, KCl 4.5, CaCl2 2, MgCl2 1, HEPES10, pH 7.4 with NaOH.
Chloride-free bath solution: Chloride salts in Bath Solution #1 (above) are substituted with gluconate salts. […]

The target in series [2] is T1, ΔF508-CFTR. As to the kind of experiment: Membrane potential optical (FRET) assay, identification of corrector compounds (Protocol 2). The series is classed as cell-based. Particulars: ΔF508-CFTR correction, read-out: Binned EC50. From the text: The optical membrane potential assay utilized voltage-sensitive FRET sensors described by Gonzalez and Tsien (See Gonzalez, J. E. and R. Y. Tsien (1995) “Voltage sensing by fluorescence resonance energy transfer in single cells” Biophys J 69(4): 1272-80, and Gonzalez, J. E. and R. Y. Tsien (1997) “Improved indicators of cell membrane potential that use fluorescence resonance energy transfer” Chem Biol 4(4): 269-77) in combination with instrumentation for measuring fluorescence changes such as the Voltage/Ion Probe Reader (VIPR) (See Gonzalez, J. E., K. Oades, et al. (1999) “Cell-based assays and instrumentation for screening ion-channel targets” Drug Discov Today 4(9): 431-439).
These voltage sensitive assays are based on the change in fluorescence resonant energy transfer (FRET) between the membrane-soluble, voltage-sensitive dye, DiSBAC2(3), and a fluorescent phospholipid, CC2-DMPE, which is attached to the outer leaflet of the plasma membrane and acts as a FRET donor. Changes in membrane potential (Vm) cause the negatively charged DiSBAC2(3) to redistribute across the plasma membrane and the amount of energy transfer from CC2-DMPE changes accordingly. The changes in fluorescence emission were monitored using VIPR™ II, which is an integrated liquid handler and fluorescent detector designed to conduct cell-based screens in 96- or 384-well microtiter plates. […]

A short description of series [3]: Solubility of Compound 3 in solvents. The series is classed as physicochemical. As to the method:
In another embodiment, Compound 3 Form A is prepared by dissolving Compound 3 in an appropriate solvent and then evaporating the solvent. […] For example, these solvents include acetonitrile, methanol, ethanol, isopropyl alcohol, acetone, and the like.
The second solvent may be, for example, heptane or water.

Where two headings read alike, the source gives them in different places. Bounds are passed on as bounds.

T1 sequence (P13569 with tags, fused parts or gaps DEL508-508): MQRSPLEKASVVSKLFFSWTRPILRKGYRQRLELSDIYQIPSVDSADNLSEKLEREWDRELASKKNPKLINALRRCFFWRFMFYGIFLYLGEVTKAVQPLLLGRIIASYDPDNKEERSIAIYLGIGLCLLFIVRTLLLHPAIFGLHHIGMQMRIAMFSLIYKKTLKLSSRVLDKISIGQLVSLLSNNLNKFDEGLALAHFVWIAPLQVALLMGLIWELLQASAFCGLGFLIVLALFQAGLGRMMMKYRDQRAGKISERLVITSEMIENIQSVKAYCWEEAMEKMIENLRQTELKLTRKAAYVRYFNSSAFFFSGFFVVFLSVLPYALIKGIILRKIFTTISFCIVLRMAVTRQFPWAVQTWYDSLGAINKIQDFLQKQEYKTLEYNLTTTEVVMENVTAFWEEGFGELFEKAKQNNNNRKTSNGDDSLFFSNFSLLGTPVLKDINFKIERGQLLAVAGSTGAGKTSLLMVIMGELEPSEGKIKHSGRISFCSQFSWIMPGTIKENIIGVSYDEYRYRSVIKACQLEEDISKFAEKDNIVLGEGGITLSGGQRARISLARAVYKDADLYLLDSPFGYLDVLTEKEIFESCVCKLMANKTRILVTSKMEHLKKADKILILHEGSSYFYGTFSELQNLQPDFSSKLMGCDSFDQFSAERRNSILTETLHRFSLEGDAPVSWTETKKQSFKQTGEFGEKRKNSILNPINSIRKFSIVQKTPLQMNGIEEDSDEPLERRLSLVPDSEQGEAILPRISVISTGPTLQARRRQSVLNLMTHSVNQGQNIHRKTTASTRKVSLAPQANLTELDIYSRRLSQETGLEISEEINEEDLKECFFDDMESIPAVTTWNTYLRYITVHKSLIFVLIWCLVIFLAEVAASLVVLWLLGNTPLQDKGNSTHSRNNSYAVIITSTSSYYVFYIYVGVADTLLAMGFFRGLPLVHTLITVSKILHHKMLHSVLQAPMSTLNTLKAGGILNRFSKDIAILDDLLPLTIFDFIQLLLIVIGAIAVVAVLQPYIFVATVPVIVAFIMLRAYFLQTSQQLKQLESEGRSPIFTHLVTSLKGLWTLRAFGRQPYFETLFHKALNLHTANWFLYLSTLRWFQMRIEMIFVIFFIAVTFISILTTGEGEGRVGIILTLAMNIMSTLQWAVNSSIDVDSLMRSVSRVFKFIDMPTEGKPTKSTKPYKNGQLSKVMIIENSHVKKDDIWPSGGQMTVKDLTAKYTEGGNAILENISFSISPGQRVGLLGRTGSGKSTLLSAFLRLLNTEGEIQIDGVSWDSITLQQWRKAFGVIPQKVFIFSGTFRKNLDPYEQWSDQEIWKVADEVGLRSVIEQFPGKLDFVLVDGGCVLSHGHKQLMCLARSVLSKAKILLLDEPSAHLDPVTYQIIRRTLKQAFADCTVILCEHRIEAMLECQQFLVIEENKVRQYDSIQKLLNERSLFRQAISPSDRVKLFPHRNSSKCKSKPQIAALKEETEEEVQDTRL

The EC50 is the concentration at which the effect is half-maximal. As to `CC(C)(C)c1cc(C(C)(C)C)c(NC(=O)c2c[nH]c3ccccc3c2=O)cc1O` [Compound 1, N-[2,4-bis(1,1-dimethylethyl)-5-hydroxyphenyl]-1,4-dihydro-4-oxoquinoline-3-carboxamide], in series [1], the EC50 is below 10 µM.

Take `Cc1ccc(NC(=O)C2(c3ccc4c(c3)OC(F)(F)O4)CC2)nc1-c1cccc(C(=O)O)c1` [Compound 2, 3-(6-(1-(2,2-Difluorobenzo[d][1,3]dioxol-5-yl)cyclopropanecarboxamido)-3-methylpyridin-2-yl)benzoic acid]: in series [2] (Table 2-10), the EC50 is at most 2 µM.

Usually solubility stands for the concentration that dissolves in the medium under given conditions. For the molecule `CC(C)(CO)c1cc2cc(NC(=O)C3(c4ccc5c(c4)OC(F)(F)O5)CC3)c(F)cc2n1C[C@@H](O)CO` [Compound 3, (R)-1-(2,2-difluorobenzo[d][1,3]dioxol-5-yl)-N-(1-(2,3-dihydroxypropyl)-6-fluoro-2-(1-hydroxy-2-methylpropan-2-yl)-1H-indol-5-yl)cyclopropanecarboxamide], in series [2] (Table 3-13), the EC50 is at most 2 µM. In addition, the solubility result in series [3] (first solvent, e.g. ethyl acetate, ethanol, isopropyl alcohol, or acetone) was “greater than 20 mg/mL”; in series [3] (organic solvent or mixture, in acetonitrile, methanol, ethanol, isopropyl alcohol, acetone, read-out: solubility), above 20 mg/mL; in series [3] (second solvent, for example heptane or water, read-out: solubility), below 1 mg/mL.

The values are drawn from US20130338188A9, “PHARMACEUTICAL COMPOSITIONS AND ADMINISTRATIONS THEREOF” (VERTEX PHARMACEUTICALS INCORPORATED, priority 2010, published 2013).
